# Source: ChEMBL document CHEMBL5518221, “Discovery and Optimization of Selective Brain-Penetrant EBP Inhibitors that Enhance Oligodendrocyte Formation” (J Med Chem, 2024)
# Key:
# in vitro = settings: CD-1, mouse, pooled liver microsomes
# [1] = Half-life in female C57BL/6 mouse at 1 mg/kg, iv measured after 0.083 hrs by LC-MS/MS analysis; settings: in vivo
# [2] = target: T1, 3-beta-hydroxysteroid-Delta(8),Delta(7)-isomerase (Mus musculus, UniProt P70245); assay: Inhibition of EBP in mouse Oligodendrocyte precursor cell assessed as zymostenol accumulation by GCMS analysis
# T1 sequence (P70245 whole entry): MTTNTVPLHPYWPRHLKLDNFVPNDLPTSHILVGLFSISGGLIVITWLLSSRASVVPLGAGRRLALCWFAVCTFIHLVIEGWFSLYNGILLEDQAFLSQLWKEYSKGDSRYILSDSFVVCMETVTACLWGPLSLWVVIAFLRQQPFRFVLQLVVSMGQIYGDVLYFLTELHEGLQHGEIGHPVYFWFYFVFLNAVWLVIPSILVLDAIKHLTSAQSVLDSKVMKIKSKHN
# [3] = target: 3-beta-hydroxysteroid-Delta(8),Delta(7)-isomerase (Homo sapiens, UniProt Q15125); assay: Inhibition of EBP in human Mesenchymal stem cells assessed as zymostenol accumulation by GCMS analysis
# Chain of 3-beta-hydroxysteroid-Delta(8),Delta(7)-isomerase (Homo sapiens, UniProt Q15125) (Q15125 whole entry): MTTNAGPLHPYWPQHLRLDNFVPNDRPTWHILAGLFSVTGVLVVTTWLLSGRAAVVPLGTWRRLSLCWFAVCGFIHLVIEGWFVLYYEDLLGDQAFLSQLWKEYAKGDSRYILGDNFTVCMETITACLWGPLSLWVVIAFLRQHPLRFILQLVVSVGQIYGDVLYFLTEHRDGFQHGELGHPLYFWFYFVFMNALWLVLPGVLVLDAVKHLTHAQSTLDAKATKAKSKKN
# [4] = Dissociation constant, pKa of compound
# [5] = target: Voltage-gated inwardly rectifying potassium channel KCNH2 (Homo sapiens, UniProt Q12809); assay: Inhibition of human ERG expressed in CHO cells by whole cell patch clamp recording
# Chain of Voltage-gated inwardly rectifying potassium channel KCNH2 (Q12809 whole entry): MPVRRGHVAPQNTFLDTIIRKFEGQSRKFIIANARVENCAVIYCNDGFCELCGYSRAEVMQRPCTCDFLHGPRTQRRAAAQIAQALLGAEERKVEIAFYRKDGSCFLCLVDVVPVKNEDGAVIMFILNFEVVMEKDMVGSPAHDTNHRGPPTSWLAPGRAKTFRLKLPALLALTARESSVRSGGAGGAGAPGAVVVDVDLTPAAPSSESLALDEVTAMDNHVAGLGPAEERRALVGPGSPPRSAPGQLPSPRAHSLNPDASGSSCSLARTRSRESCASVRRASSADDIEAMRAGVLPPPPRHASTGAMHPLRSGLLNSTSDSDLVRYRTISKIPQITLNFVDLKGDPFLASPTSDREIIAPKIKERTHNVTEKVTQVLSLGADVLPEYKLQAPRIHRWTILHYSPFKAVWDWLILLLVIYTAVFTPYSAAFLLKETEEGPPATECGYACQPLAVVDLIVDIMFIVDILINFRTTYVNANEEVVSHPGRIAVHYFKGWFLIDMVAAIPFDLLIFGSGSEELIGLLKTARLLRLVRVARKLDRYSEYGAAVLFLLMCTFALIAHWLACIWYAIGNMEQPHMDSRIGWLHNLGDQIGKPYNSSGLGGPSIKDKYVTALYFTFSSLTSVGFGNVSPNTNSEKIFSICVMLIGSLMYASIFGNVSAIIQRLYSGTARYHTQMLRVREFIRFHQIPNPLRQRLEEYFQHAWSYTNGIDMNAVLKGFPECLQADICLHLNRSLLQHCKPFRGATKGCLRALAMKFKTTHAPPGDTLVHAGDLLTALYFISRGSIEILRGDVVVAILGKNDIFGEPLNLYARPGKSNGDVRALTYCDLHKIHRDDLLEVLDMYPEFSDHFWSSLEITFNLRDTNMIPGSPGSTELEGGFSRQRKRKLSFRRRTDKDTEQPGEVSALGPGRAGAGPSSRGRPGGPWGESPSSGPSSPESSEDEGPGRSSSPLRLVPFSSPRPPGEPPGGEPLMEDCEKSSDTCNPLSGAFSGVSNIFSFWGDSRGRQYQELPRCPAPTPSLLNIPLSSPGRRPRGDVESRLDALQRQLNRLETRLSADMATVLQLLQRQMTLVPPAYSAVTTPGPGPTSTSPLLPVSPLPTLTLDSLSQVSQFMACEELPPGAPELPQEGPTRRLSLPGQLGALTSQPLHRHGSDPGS
# [6] = Unbound brain-to-plasma concentration ratio in female C57BL/6 mouse at 1 mg/kg, iv measured after 8 hrs by LC-MS/MS analysis
# [7] = Clearance in female C57BL/6 mouse at 1 mg/kg, iv measured after 0.083 hrs by LC-MS/MS analysis; settings: in vivo
# [8] = Clearance in male Sprague-Dawley rat at 1 mg/kg, iv measured after 8 hrs by LC-MS/MS analysis; settings: in vivo
# [9] = Half-life in male Sprague-Dawley rat at 1 mg/kg, iv measured after 8 hrs by LC-MS/MS analysis; settings: in vivo
# [10] = Unbound brain-to-plasma concentration ratio in male Sprague-Dawley rat at 1 mg/kg, iv measured after 8 hrs by LC-MS/MS analysis
# [11] = Volume of distribution at steady state in male Sprague-Dawley rat at 1 mg/kg, iv measured after 8 hrs by LC-MS/MS analysis; settings: in vivo
# [12] = Volume of distribution at steady state in female C57BL/6 mouse at 1 mg/kg, iv measured after 0.083 hrs by LC-MS/MS analysis; settings: in vivo
# [13] = Unbound brain-to-plasma concentration ratio in female C57BL/6 mouse at 10 mg/kg, po measured after 8 hrs by LC-MS/MS analysis
# BCRP = assay: in vitro; settings: dog
# [14] = Unbound brain-to-plasma concentration ratio in female C57BL/6 mouse at 0.2 mg/kg administered daily for 7 days and measured 8 hrs post last dose
# [15] = Protein binding in CD-1 mouse plasma at 5 uM incubated for 6 hrs by equilibrium dialysis based HPLC analysis
# [16] = Protein binding in Sprague-Dawley rat plasma at 5 uM incubated for 6 hrs by equilibrium dialysis based HPLC analysis
# in vivo [17] = settings: female, C57BL/6, mouse, brain/plasma, 2 mg/kg
# Description: Unbound brain-to-plasma concentration ratio in female C57BL/6 mouse at 2 mg/kg administered daily for 7 days and measured 8 hrs post last dose
# [18] = Unbound brain-to-plasma concentration ratio in male Sprague-Dawley rat at 5 mg/kg, po measured after 8 hrs by LC-MS/MS analysis
# MDR1 = assay: in vitro; settings: dog, MDCK-MDR1
# [19] = Half-life in female C57BL/6 mouse at 10 mg/kg, po measured after 24 hrs by LC-MS/MS analysis; settings: in vivo
# [20] = Half-life in male Sprague-Dawley rat at 5 mg/kg, po measured after 8 hrs by LC-MS/MS analysis; settings: in vivo
# in vivo [21] = settings: female, C57BL/6, mouse, po, 10 mg/kg
# in vivo [22] = settings: male, Sprague-Dawley, rat, po, 5 mg/kg
# [23] = Protein binding in human plasma at 5 uM incubated for 6 hrs by equilibrium dialysis based HPLC analysis
# [24] = Kinetic solubility of compound in PBS at pH 7.4
compound,measurement,setting,value
CCN1C(=O)N(c2cc(Cl)cc(C#N)c2)C(=O)C12CCN(CC1CCOCC1)CC2,"CLhep predicted at 1 h, 1 µM",in vitro,35 mL/min/kg
same,half-life at […],[1],0.8 h
same,EC50,[2],16 nM
CC(C)N1C(=O)N(c2ccc(C(F)(F)F)cc2)C(=O)C12CCN(CC1CCOCC1)CC2,EC50,[3],669 nM
same,"CLhep predicted at 1 h, 1 µM",in vitro,< 14 mL/min/kg
same,EC50,[2],315 nM
O=C1N(c2ccc(C(F)(F)F)cc2)CCC12CCN(CC1CCOCC1)CC2,EC50,[3],147 nM
same,"CLhep predicted at 1 h, 1 µM",in vitro,18 mL/min/kg
same,EC50,[2],36 nM
CCN1C(=O)N(c2ccc(C(F)(F)F)cc2)C(=O)C12CCN(CC1CCS(=O)(=O)CC1)CC2,pKa,[4],8.1
same,IC50,[5],73000 nM
same,EC50,[2],43 nM
CCN1C(=O)N(c2ccc(C(F)(F)F)cc2)C(=O)C12CCN(CC1(F)CCOCC1)CC2,pKa,[4],5.7
same,IC50,[5],65000 nM
same,EC50,[2],68 nM
CCN1C(=O)N(c2cccc(C3CC3)c2)C(=O)C12CCN(CC1CCOCC1)CC2,"CLhep predicted at 1 h, 1 µM",in vitro,47 mL/min/kg
same,half-life at […],[1],1.2 h
same,EC50,[2],9 nM
CCN1C(=O)N(c2ccc(C(F)(F)F)cc2)C(=O)C12CCN(CC1CCOCC1)CC2,Kp uu at 8 h,[6],0.95
same,clearance at […],[7],4 mL/min/kg
same,clearance at 8 h,[8],6.3 mL/min/kg
same,half-life at 8 h,[9],16 h
same,Kp uu at 8 h,[10],1.59
same,pKa,[4],7.9
same,"CLhep predicted at 1 h, 1 µM",in vitro,17 mL/min/kg
same,half-life at […],[1],62 h
same,IC50,[5],3000 nM
same,Vd at 8 h,[11],8.3 L/kg
same,EC50,[2],6 nM
same,Vd at […],[12],7.4 L/kg
CCN1C(=O)N(c2ccc(C3CC3)cc2)C(=O)C12CCN(CC1CCOCC1)CC2,Kp uu at 8 h,[6],0.77
same,Kp uu at 8 h,[13],0.72
same,clearance at […],[7],17 mL/min/kg
same,Papp A→B,BCRP,20 ×10⁻⁶ cm/s
same,clearance at 8 h,[8],17 mL/min/kg
same,half-life at 8 h,[9],4.4 h
same,Kp uu at 176 h,[14],1.7
same,Kp uu at 8 h,[10],0.74
same,"fraction unbound at 6 h, 5 µM",[15],0.364
same,"fraction unbound at 6 h, 5 µM",[16],0.3
same,"CLhep predicted at 1 h, 1 µM",in vitro,< 14 mL/min/kg
same,Kp uu at 176 h,in vivo [17],0.6
same,half-life at […],[1],3.9 h
same,IC50,[5],8200 nM
same,Vd at 8 h,[11],6.2 L/kg
same,EC50,[2],8 nM
same,Kp uu at 8 h,[18],0.5
same,Vd at […],[12],5.2 L/kg
same,Papp A→B,MDR1,15 ×10⁻⁶ cm/s
same,half-life at 24 h,[19],3.3 h
same,half-life at 8 h,[20],5.1 h
same,bioavailability at 24 h,in vivo [21],68%
same,bioavailability at 8 h,in vivo [22],42%
same,"fraction unbound at 6 h, 5 µM",[23],0.291
same,solubility kinetic,[24],64 µM
CCN1C(=O)N(c2ccc(Cl)cc2)C(=O)C12CCN(CC1CCOCC1)CC2,"CLhep predicted at 1 h, 1 µM",in vitro,25 mL/min/kg
same,half-life at […],[1],5.7 h
O=C1NC2(CCN(CC3CCOCC3)CC2)C(=O)N1c1ccc(C(F)(F)F)cc1,"CLhep predicted at 1 h, 1 µM",in vitro,< 14 mL/min/kg
same,EC50,[2],1000 nM
CN1C(=O)N(c2ccc(C(F)(F)F)cc2)C(=O)C12CCN(CC1CCOCC1)CC2,"CLhep predicted at 1 h, 1 µM",in vitro,< 14 mL/min/kg
same,EC50,[2],20 nM
O=C1N(c2ccc(C(F)(F)F)cc2)C(=O)C2(CCN(CC3CCOCC3)CC2)N1C1CC1,"CLhep predicted at 1 h, 1 µM",in vitro,< 14 mL/min/kg
CCN1C(=O)N(c2ccc(C)cc2)C(=O)C12CCN(CC1CCOCC1)CC2,"CLhep predicted at 1 h, 1 µM",in vitro,< 14 mL/min/kg
same,half-life at […],[1],1.8 h
same,EC50,[2],18 nM
CCN1C(=O)N([C@H]2CC[C@H](C(F)(F)F)CC2)C(=O)C12CCN(CC1CCOCC1)CC2,Kp uu at 8 h,[6],0.56
same,Kp uu at 8 h,[13],0.62
same,clearance at […],[7],9.9 mL/min/kg
same,Papp A→B,BCRP,20 ×10⁻⁶ cm/s
same,clearance at 8 h,[8],9.2 mL/min/kg
same,half-life at 8 h,[9],12 h
same,Kp uu at 8 h,[10],0.6
same,"fraction unbound at 6 h, 5 µM",[15],0.376
same,"fraction unbound at 6 h, 5 µM",[16],0.278
same,"CLhep predicted at 1 h, 1 µM",in vitro,< 14 mL/min/kg
same,half-life at […],[1],5.7 h
same,IC50,[5],8000 nM
same,Vd at 8 h,[11],8.3 L/kg
same,Kp uu at 8 h,[18],0.58
same,Vd at […],[12],5.1 L/kg
same,Papp A→B,MDR1,14 ×10⁻⁶ cm/s
same,half-life at 24 h,[19],5.3 h
same,bioavailability at 24 h,in vivo [21],47%
same,bioavailability at 8 h,in vivo [22],13%
same,"fraction unbound at 6 h, 5 µM",[23],0.296
same,solubility kinetic,[24],29 µM
CCN1C(=O)N(c2ccc(C(F)(F)F)cc2)C(=O)C12CCN(C(C)C1CCOCC1)CC2 (stereo not given),pKa,[4],8.2
same,IC50,[5],2900 nM
same,EC50,[2],41 nM
CCN1C(=O)N(c2ccc(C(F)(F)F)cc2)C(=O)C12CCN(C1CCCOCC1)CC2 (stereo not given),pKa,[4],8.1
same,IC50,[5],850 nM
same,EC50,[2],95 nM
CCN1C(=O)N(c2ccc(C(F)(F)F)cc2)C(=O)C12CCN(C1CCOCC1)CC2,pKa,[4],8.2
same,IC50,[5],4400 nM
same,EC50,[2],364 nM
